Assay results reported in paper PMC8802628, “Selective activation of PFKL suppresses the phagocytic oxidative burst” (Cell, 2021).

Experiments:
[1] = target: T1, PFKL (K315R, V545L, and V582M), PFKL3Mut (Homo sapiens, UniProt P17858, K315R/V545L/V582M); assay: Recombinant PFKL3Mut activity assay; format: biochemical; conditions: for activation of PFKL3Mut: 3.1 mM ATP, 1.5 mM F6P
T1 construct: made in house; host or cells: Sf9 insect cells (baculovirus)
T1 sequence (P17858 1-780 K315R/V545L/V582M): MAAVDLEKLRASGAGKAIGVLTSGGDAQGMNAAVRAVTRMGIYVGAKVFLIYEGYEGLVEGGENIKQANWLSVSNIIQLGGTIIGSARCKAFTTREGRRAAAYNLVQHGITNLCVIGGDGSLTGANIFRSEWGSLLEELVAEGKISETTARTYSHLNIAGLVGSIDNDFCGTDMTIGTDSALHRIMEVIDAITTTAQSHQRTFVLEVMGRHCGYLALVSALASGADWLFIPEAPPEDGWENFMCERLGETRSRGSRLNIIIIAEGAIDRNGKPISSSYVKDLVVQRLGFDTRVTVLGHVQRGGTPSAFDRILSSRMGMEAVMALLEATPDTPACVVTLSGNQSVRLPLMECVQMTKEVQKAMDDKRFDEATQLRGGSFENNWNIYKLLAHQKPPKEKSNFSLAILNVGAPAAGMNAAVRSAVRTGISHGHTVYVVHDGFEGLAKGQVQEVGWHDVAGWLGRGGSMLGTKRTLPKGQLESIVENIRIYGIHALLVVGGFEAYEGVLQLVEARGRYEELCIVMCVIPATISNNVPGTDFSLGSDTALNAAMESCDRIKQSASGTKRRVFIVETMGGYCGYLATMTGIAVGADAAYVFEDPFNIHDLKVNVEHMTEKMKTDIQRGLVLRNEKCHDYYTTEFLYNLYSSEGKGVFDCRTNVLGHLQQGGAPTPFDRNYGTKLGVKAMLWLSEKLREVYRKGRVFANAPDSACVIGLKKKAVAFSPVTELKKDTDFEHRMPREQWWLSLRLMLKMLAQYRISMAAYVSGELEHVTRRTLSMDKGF
From the text: (§1) Recombinant N-terminal His-tagged human PFKL (NP_002617), PFKM (NP_000280), and PFKP (NM_002627.4) were generated as described ([Webb et al., 2015], [2017]). Point mutants of PFK1 were generated using the QuikChange Lightning kit (Aligent).
(§2) His-tagged PFK1 was expressed and purified as described with slight modifications ([Webb et al., 2015], [2017]). Briefly, baculovirus was generated using the Bac-to-Bac Expression system (Invitrogen). PFK1 was expressed in 2-5 × 10^6 sf9 cells at a multiplicity of infection of two for 48 h. Cells were lysed in 20 mM HEPES, pH 7.5, 80 mM potassium phosphate, 1 mM 2-mercapentoethanol, 10% glycerol, 10 mM imidazole, and EDTA-free Protease Inhibitor Cocktail (Abcam) with a Dounce homogenizer. The soluble lysate was incubated with HisPur cobalt resin (ThermoFisher Scientific). The resin was washed with 5 bead volumes lysis buffer, 10 bead volumes lysis buffer containing 2 M NaCl, and 5 further bead volumes lysis buffer. PFK1 was eluted in lysis buffer containing 100 mM imidazole. Fractions containing protein were pooled, passed over a desalting column equilibrated in freezing buffer [20 mM HEPES pH 7.5, 1 mM DTT, 500 μM ammonium sulfate, 5% glycerol, 1 mM ATP, and 100 μM EDTA] and concentrated using an Amicon Ultracel-30K Centrifugal Filter Unit (MilliporeSigma). Protein was quantified using a Bradford Protein Assay kit (ThermoFisher Scientific), and aliquotes frozen in liquid nitrogen for storage at −80°C.
(§3) PFK1 activity was determined using the rate of FBP production via an auxiliary enzyme assay adapted to a 96-well format ([Brüser et al., 2012]; [Webb et al., 2015]). The auxiliary enzymes aldolase, triosephosphate isomerase, and glycerol phosphate dehydrogenase were purchased from MilliporeSigma as ammonium sulfate slurries and desalted using an Amicon Ultracel-10K Centrifugal Filter Unit. For assays containing FBP, the rate of ADP production was determined using the auxiliary enzymes pyruvate kinase (PK) and lactate dehydrogenase (LDH) (MilliporeSigma) in a buffer containing 250 μM phosphoenolpyruvic acid, […] NADH, 50 mM HEPES pH 7.5, 100 mM KCl, 1 mM DTT, and effector concentrations as described in the text. The temperature was equilibrated to 25°C for 5 min before initiating the reaction 10 mM MgCl2. Absorbance at 340 nm was measured using a Varioskan LUX Multimode microplate reader (ThermoFisher). Kinetic parameters were generated by nonlinear regression analysis using Prism (GraphPad Software) and are the mean of a minimum of three measurements from two independent preparations of protein. One unit of activity was defined as the amount of enzyme that catalyzed the formation of 1 μmol of fructose 1,6-bisphosphate per min at 25°C. Assays for PFKM were performed at pH 7.0 due to the pH-dependence of ATP inhibition ([Trivedi and Danforth, 1966]).

[2] = target: T2, PFKM+pocket (R315 to lysine) (Homo sapiens, UniProt P08237, R315K); assay: Recombinant PFKM+pocket activity assay; format: biochemical
T2 construct: made in house; host or cells: Sf9 insect cells (baculovirus)
T2 sequence (P08237 1-780 R315K): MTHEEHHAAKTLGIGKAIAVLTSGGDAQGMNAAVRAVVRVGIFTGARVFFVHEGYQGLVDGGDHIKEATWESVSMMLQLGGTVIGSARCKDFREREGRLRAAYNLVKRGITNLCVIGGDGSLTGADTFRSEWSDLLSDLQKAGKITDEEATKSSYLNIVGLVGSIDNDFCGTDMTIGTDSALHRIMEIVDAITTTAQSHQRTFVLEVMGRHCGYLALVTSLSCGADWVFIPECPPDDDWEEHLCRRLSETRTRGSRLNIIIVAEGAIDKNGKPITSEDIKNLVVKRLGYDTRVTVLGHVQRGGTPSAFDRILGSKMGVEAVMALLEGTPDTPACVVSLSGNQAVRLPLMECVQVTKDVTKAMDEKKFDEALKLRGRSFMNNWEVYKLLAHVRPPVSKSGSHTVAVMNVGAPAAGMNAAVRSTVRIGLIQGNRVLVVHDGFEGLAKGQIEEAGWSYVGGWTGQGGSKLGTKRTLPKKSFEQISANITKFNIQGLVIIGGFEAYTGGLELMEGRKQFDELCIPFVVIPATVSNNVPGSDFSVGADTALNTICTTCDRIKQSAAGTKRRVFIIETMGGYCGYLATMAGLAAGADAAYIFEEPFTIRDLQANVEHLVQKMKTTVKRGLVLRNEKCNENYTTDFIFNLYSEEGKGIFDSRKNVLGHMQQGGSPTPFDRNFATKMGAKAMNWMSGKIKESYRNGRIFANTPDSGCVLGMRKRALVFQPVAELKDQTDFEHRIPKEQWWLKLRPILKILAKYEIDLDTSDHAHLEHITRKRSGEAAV
From the text: as §1, §2
as §3, with “Assays for PFKM were performed at pH 7.0 due to the pH-dependence of ATP inhibition ([Trivedi and Danforth, 1966]).” left out

[3] = test system: human peripheral blood neutrophils; assay: NETosis assay in human neutrophils (SYTOX Green, DNA area); format: cell-based
[4] = PFKM+pocket, pH 7.0, 250 μM ATP

SMILES: O=C(CO)[C@@H](O)[C@H](O)[C@H](O)COP(=O)(O)O [F6P, fructose 6-phosphate]
- Vmax,F6P ([1]; PFKL3Mut, pH 7.5, 225 μM ATP): 17.36 ± 0.87 micromoles FBP per minute per milligram PFK1
- hF6P (Hill coefficient) ([1]; PFKL3Mut, pH 7.5, 225 μM ATP): 3.07 ± 0.87
- Vmax,F6P [2, 4]: 17.29 ± 0.93 micromoles FBP per minute per milligram PFK1
- hF6P (Hill coefficient) [2, 4]: 3.64 ± 0.69

SMILES: COc1ccccc1-c1cc2n(n1)Cc1ccc(NC(C)=O)cc1OC2 [LDC7559, reference compound]
- NETosis in response to PMA ([3]; 10 μM compound, compared with DMSO vehicle): defective NETosis

SMILES: CC(=O)Nc1ccc2c(c1)OCc1cc(-c3ccccc3)nn1C2 [NA-5]
- EC50 ([2]; pH 7.0, 4.0 mM ATP, 1.0 mM F6P, mean ± SEM, read-out: EC50, activation of PFKM+pocket): 0.0109 ± 0.00128 µM

SMILES: CC(=O)Nc1ccc2c(c1)OCc1cc(-c3ccccc3C#CCCCO)nn1C2 [NA-11]
- activation of PFKL3Mut ([1]; at 200 nM): no activation observed
- activation of PFKL3Mut ([1]; at 1 μM): only partial activation observed
- time of addition after PMA up to which NETosis was inhibited ([3]; compound added after PMA-induced activation): up to 1 h
